Results on four compounds are retold here after ChEMBL document CHEMBL1127810, “Synthesis of high specific activity [3H]-9-cis-retinoic acid and its application for identifying retinoids with unusual binding properties” (J Med Chem, 1994).

In test [1] the target is T1, Retinoic acid receptor RXR-beta (Homo sapiens, UniProt P28702).
T1 sequence (P28702 whole entry): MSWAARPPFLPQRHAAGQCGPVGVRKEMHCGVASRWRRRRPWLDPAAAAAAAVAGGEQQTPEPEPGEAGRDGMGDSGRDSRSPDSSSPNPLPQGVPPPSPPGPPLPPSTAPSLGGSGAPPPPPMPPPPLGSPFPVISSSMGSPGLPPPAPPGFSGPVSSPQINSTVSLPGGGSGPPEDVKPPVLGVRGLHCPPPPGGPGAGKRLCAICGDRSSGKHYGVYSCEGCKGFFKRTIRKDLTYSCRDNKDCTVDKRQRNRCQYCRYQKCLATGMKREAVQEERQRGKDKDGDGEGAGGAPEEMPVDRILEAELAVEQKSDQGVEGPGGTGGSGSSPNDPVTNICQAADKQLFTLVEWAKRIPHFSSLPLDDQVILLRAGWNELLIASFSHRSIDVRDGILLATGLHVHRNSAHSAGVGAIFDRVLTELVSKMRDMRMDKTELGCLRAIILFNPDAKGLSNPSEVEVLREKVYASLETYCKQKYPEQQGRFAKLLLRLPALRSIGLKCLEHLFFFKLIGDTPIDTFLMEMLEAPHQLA
In words: Binding affinity against retinoic Acid X beta receptors co-transfected into CV-1 cells. The format is cell-based.

For test [2], the target named is T2, Retinoic acid receptor RXR-alpha (Homo sapiens, UniProt P19793).
T2 sequence (P19793 whole entry): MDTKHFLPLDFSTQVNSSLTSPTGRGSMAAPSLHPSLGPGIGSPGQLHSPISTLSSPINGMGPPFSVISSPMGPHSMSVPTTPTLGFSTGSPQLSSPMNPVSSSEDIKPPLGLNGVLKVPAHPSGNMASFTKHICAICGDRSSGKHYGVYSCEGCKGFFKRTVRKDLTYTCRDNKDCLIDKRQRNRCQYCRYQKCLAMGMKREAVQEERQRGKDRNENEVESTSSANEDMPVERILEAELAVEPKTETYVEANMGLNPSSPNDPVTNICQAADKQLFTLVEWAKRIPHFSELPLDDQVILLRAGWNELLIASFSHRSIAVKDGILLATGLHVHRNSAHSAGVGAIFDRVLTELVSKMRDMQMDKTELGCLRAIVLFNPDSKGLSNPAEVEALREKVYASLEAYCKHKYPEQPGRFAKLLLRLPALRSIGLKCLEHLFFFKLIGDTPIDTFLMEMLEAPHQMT
Briefly: Binding affinity against retinoic Acid X alpha receptor using [3H]- -9-cis-Retinoic Acid in competitive binding assay.

Test [3] addresses T3, Retinoic acid receptor RXR-gamma (Homo sapiens, UniProt P48443).
T3 sequence (P48443 whole entry): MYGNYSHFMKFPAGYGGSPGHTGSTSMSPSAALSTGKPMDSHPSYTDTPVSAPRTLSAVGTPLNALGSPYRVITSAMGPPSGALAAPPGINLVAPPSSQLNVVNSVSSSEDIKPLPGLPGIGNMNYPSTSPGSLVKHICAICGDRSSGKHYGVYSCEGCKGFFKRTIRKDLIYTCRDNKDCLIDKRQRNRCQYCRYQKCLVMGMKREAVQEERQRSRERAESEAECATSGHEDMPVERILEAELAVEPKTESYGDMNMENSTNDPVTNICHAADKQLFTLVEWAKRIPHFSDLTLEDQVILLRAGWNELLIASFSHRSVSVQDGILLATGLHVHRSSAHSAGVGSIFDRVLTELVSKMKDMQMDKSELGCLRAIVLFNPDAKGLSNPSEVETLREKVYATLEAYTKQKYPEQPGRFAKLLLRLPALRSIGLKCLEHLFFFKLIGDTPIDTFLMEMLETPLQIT
In words: Binding affinity against retinoic Acid X gamma receptor using [3H]- -9-cis-Retinoic Acid in competitive binding assay.

In test [4] the target is T3, Retinoic acid receptor RXR-gamma. In words: Binding affinity against retinoic Acid X gamma receptors co-transfected into CV-1 cells. It is filed as cell-based.
Test [5] has as its target T1, Retinoic acid receptor RXR-beta. Briefly: Binding affinity against retinoic Acid X beta receptor using [3H]- -9-cis-Retinoic Acid in competitive binding assay.
For test [6], the target named is T2, Retinoic acid receptor RXR-alpha. Briefly: Binding affinity against retinoic Acid X alpha receptors co-transfected into CV-1 cells. The format is cell-based.
The target of test [7] is T4, Retinoic acid receptor gamma (Homo sapiens, UniProt P13631).
T4 sequence (P13631 whole entry): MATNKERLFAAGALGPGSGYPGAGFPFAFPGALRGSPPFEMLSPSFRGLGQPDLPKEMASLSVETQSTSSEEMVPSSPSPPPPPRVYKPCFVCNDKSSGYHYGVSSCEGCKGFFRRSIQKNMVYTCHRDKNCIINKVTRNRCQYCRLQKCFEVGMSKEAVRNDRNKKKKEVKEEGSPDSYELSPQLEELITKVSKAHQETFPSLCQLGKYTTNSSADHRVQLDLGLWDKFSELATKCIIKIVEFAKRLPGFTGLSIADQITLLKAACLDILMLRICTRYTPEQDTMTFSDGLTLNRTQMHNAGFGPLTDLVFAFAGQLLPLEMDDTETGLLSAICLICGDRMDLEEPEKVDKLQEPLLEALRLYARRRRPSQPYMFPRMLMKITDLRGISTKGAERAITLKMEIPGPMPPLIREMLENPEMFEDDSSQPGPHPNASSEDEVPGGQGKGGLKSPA

The target in test [8] is T5, Retinoic acid receptor alpha (Homo sapiens, UniProt P10276).
T5 sequence (P10276 whole entry): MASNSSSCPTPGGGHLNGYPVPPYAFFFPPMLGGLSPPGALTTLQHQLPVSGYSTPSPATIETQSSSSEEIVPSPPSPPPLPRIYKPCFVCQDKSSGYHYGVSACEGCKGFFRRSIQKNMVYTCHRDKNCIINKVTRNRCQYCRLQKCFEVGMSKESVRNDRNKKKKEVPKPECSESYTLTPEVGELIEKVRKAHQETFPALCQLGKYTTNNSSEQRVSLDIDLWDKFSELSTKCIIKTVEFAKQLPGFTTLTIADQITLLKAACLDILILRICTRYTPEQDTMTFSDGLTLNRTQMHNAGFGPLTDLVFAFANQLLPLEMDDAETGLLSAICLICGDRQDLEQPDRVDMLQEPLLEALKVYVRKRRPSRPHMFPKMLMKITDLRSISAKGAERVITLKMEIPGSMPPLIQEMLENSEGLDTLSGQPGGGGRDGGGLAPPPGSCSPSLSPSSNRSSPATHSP
In words: Binding affinity against retinoic Acid alpha receptor using [3H]- -9-cis-Retinoic Acid in competitive binding assay.

The target in test [9] is T6, Retinoic acid receptor beta (Homo sapiens, UniProt P10826).
T6 sequence (P10826 whole entry): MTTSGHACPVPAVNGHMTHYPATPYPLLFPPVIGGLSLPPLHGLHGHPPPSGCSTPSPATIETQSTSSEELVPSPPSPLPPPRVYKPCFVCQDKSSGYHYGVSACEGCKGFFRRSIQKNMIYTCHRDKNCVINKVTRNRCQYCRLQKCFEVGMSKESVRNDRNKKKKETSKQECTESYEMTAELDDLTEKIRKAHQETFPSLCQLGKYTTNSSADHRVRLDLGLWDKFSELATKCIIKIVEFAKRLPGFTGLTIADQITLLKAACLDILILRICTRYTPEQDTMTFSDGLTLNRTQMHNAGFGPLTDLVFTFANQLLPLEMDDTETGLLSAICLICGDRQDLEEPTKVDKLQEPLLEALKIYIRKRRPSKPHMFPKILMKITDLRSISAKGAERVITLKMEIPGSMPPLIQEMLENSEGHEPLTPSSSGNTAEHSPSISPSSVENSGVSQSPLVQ
In words: Binding affinity against retinoic Acid beta receptors co-transfected into CV-1 cells. It is filed as cell-based.

Test [10] has as its target T6, Retinoic acid receptor beta. Briefly: Binding affinity against retinoic Acid beta receptor using [3H]- -9-cis-Retinoic Acid in competitive binding assay.
The target of test [11] is T5, Retinoic acid receptor alpha. Briefly: Binding affinity against retinoic Acid alpha receptors co-transfected into CV-1 cells. The format is cell-based.
Test [12] addresses T4, Retinoic acid receptor gamma. This is another data set of the same source.
Description: Binding affinity against retinoic Acid gamma receptors co-transfected into CV-1 cells

Broadly, the EC50 is the concentration that produces a half-maximal response. A lower EC50 goes with an effect from little substance. Broadly, the IC50 is the concentration needed to halve the response being measured. A lower IC50 goes with greater potency. For `C/C(=C\c1ccc(C(=O)O)cc1)c1ccc2c(c1)C(C)(C)CCC2(C)C`, the EC50 in [1], in test [4] and in [6] was > 10000 nM in each case. Further, the 50% inhibitory concentration (IC50) in [2], in test [3] and in test [5] was > 1000 nM in each case.

As to `CCc1cc2c(cc1/C(C)=C/c1ccc(C(=O)O)cc1)C(C)(C)CCC2(C)C`, the 50% inhibitory concentration (IC50) was 250 nM in [7]; 320 nM in test [2]; 100 nM in [8]; 10 nM in [3]; 75 nM in test [10]; 50 nM in test [5]. Besides, the 50% effective concentration (EC50) was 2000 nM in [1]; 310 nM in test [9]; 2600 nM in test [4]; 1700 nM in test [11]; 23 nM in test [12]; 2900 nM in test [6].

Take `C/C(=C\c1ccc(C(=O)O)cc1)c1cc2c(cc1C)C(C)(C)CCC2(C)C`: the IC50 in test [7] is 645 nM; in test [2] it was 32 nM; in test [8], 638 nM; in test [3] it was 100 nM; in test [10], 1170 nM; in test [5] it was > 1000 nM. In addition, the concentration for a half-maximal effect (EC50) in test [1] was found to be 1170 nM; in test [9], 230 nM; in [4], 1500 nM; in test [11], 340 nM; in [12] it was 180 nM; in test [6], 1200 nM.

With `C/C(=C\c1ccc(C(=O)O)cc1)c1cc2c(cc1C(C)C)C(C)(C)CCC2(C)C`, the half-maximal inhibitory concentration (IC50) in test [7] was > 1000 nM; in test [2] it was 320 nM; in test [8] it was > 1000 nM; in [3], 10 nM; in test [10] it was 150 nM; in test [5], 50 nM. Also, the EC50 is > 10000 nM in test [1]; > 10000 nM in test [9]; 2700 nM in [4]; > 10000 nM in test [11]; 270 nM in test [12]; 300 nM in [6].
